Tests used:
[1] = tested on: 184B5 cells (breast non-malignant derived cell line); assay: MTT cell viability assay, 184B5; assay type: cell-based; conditions: Homo sapiens, 184B5; 48 h, MTT, mean ± SD; read-out: IC50 184B5 (breast, non-malignant)
Description: (§1) Cell lines were purchased from the American Type Culture Collection (ATCC). MCF-7, HTB-54, BEAS-2B and 184B5 cell lines were grown in RPMI 1640 medium (Gibco) supplemented with 10% fetal bovine serum (FBS; Gibco), 100 units/mL penicillin, and […] streptomycin (Gibco). HT-29 and HCT-116 cell lines was cultured in McCoy’s 5A (Gibco), 10% FBS, 100 units/mL penicillin, and 100 μg/mL streptomycin. Cells were maintained at 37 °C and 5% CO2. Culture medium was replaced every three days.
(§2) A cell viability assay of each compound was carried out using an MTT assay. Each selenourea was dissolved in dimethyl sulfoxide (DMSO) at a concentration of 0.01 M. Serial dilutions were prepared with non-supplemented culture medium. Cytotoxic activity of each selenourea was determined at two different concentrations (10 and 50 µM) in MCF-7, HTB-54, and HT-29 cells. In addition, selected compounds were tested at seven different concentrations (0.1, 1, 5, 10, 25, 50, 100 µM) on MCF-7, HT-29, HCT-116, HTB-54, 184B5, and BEAS-2B cells. The number of passages before defrosting the cells was 3, and they were kept under culture up to a maximum of 15.
(§3) Briefly, 1 × 10^4 cells/well were grown in 96-well plates for 24 h. Then, these cells were incubated with either DMSO (negative control) at 5 µM or a different concentration of each tested selenourea for 48 h. A volume of 20 µL of MTT was added 150 min before the termination point to measure cellular viability. After this time, culture medium was removed. The resultant formazan crystals were dissolved in 50 µL of DMSO, and absorbance was measured at 570 nm. Results are expressed as IC50, the half maximal inhibitory concentration. This value was calculated using GraphPad Prism 7 software by nonlinear curve fitting. Furthermore, the selectivity index (SI) was calculated as the ratio of the IC50 values determined for the non-malignant and the tumoral cells (IC50 (184B5)/IC50 (MCF-7) or (IC50 (BEAS-2B)/IC50 (HTB-54). Data were obtained from at least three independent experiments performed in triplicates.

[2] = tested on: MCF-7 cells (breast adenocarcinoma); assay: MTT cell viability assay, MCF-7; assay type: cell-based, human
Outline: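 Cells at 1 × 10^4/well grown 24 h, then treated 48 h with selenourea at 10 and 50 µM (selected compounds 0.1–100 µM), DMSO as negative control. MTT added 150 min before end, formazan read at 570 nm; IC50 by nonlinear fit, ≥3 independent experiments in triplicate.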

[3] = tested on: HT-29 cells; assay: Cell cycle progression, propidium iodide flow cytometry; assay type: cell-based, human; conditions: HT-29, 48 h, 0.1, 1, 5 and 10 µM
Description: (§4) 6 × 10^5 cells/well were grown in 6-well plates for 24 h. Cultures were treated with the corresponding amount of the selected compounds, DMSO (control), or 10 μM camptothecin (positive control). Propidium iodide (PI) was used as DNA stain dye to determine cell cycle distribution. Cells were stored at −20 °C with 70% ethanol for at least 24 h. Then, ethanol was removed, cells were washed with PBS, and stained for 30 min with 500 µL of a solution containing 0.001% triton, 0.2% w/v RNase, and 0.02% PI.
To gain further knowledge about the mechanism of action of 6c, we investigated the effect of this compound on cell cycle progression using flow cytometry analysis, with propidium iodide as a DNA staining agent. We analyzed the effect at 48 h treatment with four different concentrations (0.1, 1, 5, and 10 µM) of compound 6c on HT-29 cells. Camptothecin (10 μM) was used as a positive control. […] The cell cycle modulation of 6c is very similar to camptothecin, the reference compound used in the study.

[4] = tested on: MDA-MB-468 (breast cancer); assay: cells; assay type: cell-based
Source text: (§5) The dose–response was also studied in the same 60 cancer cell lines, with outstanding results. […] Table 2 summarizes the GI50, TGI, and LC50 values of representative cell lines. Full data mean GI50 graphs are provided in the Supplementary Materials.

[5] = tested on: UO-31 (renal cancer); assay: cells; assay type: cell-based
Source text: as §5

[6] = tested on: MDA-MB-231/ATCC (breast cancer); assay: cells; assay type: cell-based
Source text: as §5

[7] = tested on: COLO-205 (colon cancer); assay: cells; assay type: cell-based
Source text: as §5

[8] = tested on: NCI-60 cell line panel; assay: cells; assay type: cell-based
Source text: as §5

[9] = tested on: SK-MEL-5 (melanoma); assay: cells; assay type: cell-based
Source text: as §5

[10] = tested on: HT-29 cells; assay: Annexin V-APC/7AAD cell death assay; assay type: cell-based, human
Description: as §4
For the determination of apoptosis, APC Annexin V Apoptosis Detection Kit with 7-AAD from Biolegend® was employed following the staining procedure described by the manufacturer. Samples were analyzed by flow cytometry using a BD Accuri™ C6 Plus Flow Cytometer (Beckton, Dickinson and company, Franklin Lakes (NJ), USA).
Mounting evidence of the anticancer potential of selenium compounds can be found in the literature. […] Remarkably, these mechanisms vary depending on the selenium compound and on cell phenotype. […] Assays were conducted at different 6c concentrations ranging from 0.1 to 10 µM. Camptothecin (10 µM) was used as positive control.

[11] = tested on: BEAS-2B cells (lung non-malignant derived cell line); assay: MTT cell viability assay, BEAS-2B; assay type: cell-based; conditions: Homo sapiens, 48 h, mean ± SD
Description: as §1, §2, §3

[12] = HT-29, 6c 10 µM, 24 h, 30 min preincubation

COc1ccc(NC(=[Se])NC23CC4CC(CC(C4)C2)C3)cc1 [Compound 6c, N´-adamantyl-N-(4-methoxyphenyl)selenourea]
IC50 [1]: 7.23 ± 2.28 µM
IC50 ([2]; Homo sapiens, MCF7, 48 h, MTT, mean ± SD, read-out: IC50 MCF-7 (breast)): 4.94 ± 1.99 µM
viability at 10 µM ([2]; Homo sapiens, MCF7, MCF-7, 10 µM, 48 h, MTT, read-out: cell viability, percentage of live cells): 37.9%
viability at 50 µM ([2]; Homo sapiens, MCF7, MCF-7, 50 µM, 48 h, MTT, read-out: cell viability, percentage of live cells): 9.2%
SI (selectivity index) breast ([2]; IC50 (184B5)/IC50 (MCF-7)): 1.46
cell cycle modulation [3]: cell cycle arrest at the S phase in a concentration-dependent manner
CC50 ([4]; Homo sapiens, MDA-MB-468, read-out: LC50): 8.71 µM
GI50 ([4]; Homo sapiens, MDA-MB-468, NCI-60): 1.35 µM
TGI ([4]; MDA-MB-468, NCI-60): 3.39 µM
LC50 (concentration killing 50% of cells) ([5]; Homo sapiens, UO-31, read-out: LC50): 9.77 µM
GI50 ([5]; Homo sapiens, UO-31, NCI-60): 1.74 µM
TGI ([5]; UO-31, NCI-60): 4.07 µM
CC50 ([6]; Homo sapiens, MDA-MB-231, read-out: LC50): 8.51 µM
GI50 ([6]; Homo sapiens, MDA-MB-231/ATCC, NCI-60): 1.78 µM
TGI ([6]; MDA-MB-231/ATCC, NCI-60): 3.89 µM
TGI ([7]; COLO-205, NCI-60): 3.98 µM
CC50 ([7]; Homo sapiens, COLO 205, read-out: LC50): 9.33 µM
GI50 ([7]; Homo sapiens, COLO-205, NCI-60): 1.66 µM
GI50 ([8]; average for the 60 cell lines): 1.49 µM
average TGI ([8]; average for the 60 cell lines): 9.17 µM
LC50 ([8]; read-out: LC50 values against 10 of the NCI60 cancer cell lines): 4.27 to 9.33 µM
CC50 ([9]; Homo sapiens, SK-MEL-5, read-out: LC50): 4.27 µM
GI50 ([9]; Homo sapiens, SK-MEL-5, NCI-60): 0.56 µM
TGI ([9]; SK-MEL-5, NCI-60): 1.78 µM
cell death after pre-incubation with PI3K inhibitor wortmannin [10, 12]: prevented induction cell death
number of dead cells after pre-incubation with pancaspase inhibitor z-VAD-fmk [10, 12]: no significant differences in the number of dead cells
number of dead cells (7AAD positive cells) ([10]; HT-29, 48 h, 5 and 10 µM): increased the number of dead cells
IC50 [11]: 4.73 ± 0.79 µM
